Patent publication US8168647B2, “Vinblastine derivatives, their preparation, use and pharmaceutical compositions comprising the said derivatives” (Shanghai Institute of Materia Medica Chinese Academy of …, priority 2007, dated 2012)
Structures can show the parent of a compound that is named as a salt. Where two headings read alike, the source gives them in different places. Marks after values point to notes of the source that are not given here.

How the values were obtained:
[1] = system: human cervical carcinoma cell line Hela; test: In vitro cytotoxicity assay, Sulforhodamine B (SRB), Hela; assay type: cell-based
[2] = system: sarcoma 180; test: In vivo antitumor assay on Sarcoma 180 (S180) in mice; settings: for inhibition in vivo at 20 mg/kg / inhibition in vivo at 40 mg/kg / inhibition in vivo at 10 mg/kg: Mus musculus, Sarcoma-180, iv; for inhibition in vivo at 10 mg/kg: read-out: Inhibition rate %, 10 mg/kg, iv, d 1, 4
[3] = system: human non-small cell lung cancer cell line A-549; test: In vitro cytotoxicity assay, Sulforhodamine B (SRB), A-549; assay type: cell-based
[4] = Homo sapiens, HeLa, 72 h, read-out: Hela (IC50, nM)
[5] = read-out: Inhibition rate %, 20 mg/kg, iv, d 1, 4
[6] = read-out: Inhibition rate %, 40 mg/kg, iv, d 1, 4
[7] = Homo sapiens, A549, 72 h, read-out: A549 (IC50, nM)

SMILES	IC50 [1, 4] [nM]	IC50 [3, 7] [nM]	also measured
CCC1=C[C@@H]2CN(CCc3c([nH]c4ccccc34)[C@@](C(=O)OC)(c3cc4c(cc3OC)N(C)[C@H]3[C@@](O)(C(=O)OC)[C@H](OC(C)=O)[C@]5(CC)C=CCN6CC[C@]43[C@@H]65)C2)C1 [Anhydrovinblastine tartrate, anhydrovinblastine tartrate, reference compound]			IC50 ([1]; SRB assay, 72 hours incubation, ditartrate of all compounds used, read-out: Hela (IC50)): 40.2 nM; Average weight (g) At sacrifice ([2]; 10 mg/kg, iv, d 1, 4): 27.9 g; Inhibition rate % ([2]; 10 mg/kg, iv, d 1, 4): 69.4* %; Tumor Weight (g) X ± SD ([2]; 10 mg/kg, iv, d 1, 4): 0.49 ± 0.10 g; IC50 ([3]; SRB assay, 72 hours incubation, ditartrate of all compounds used, read-out: A549 (IC50)): 60.2 nM
CC[C@]12C=CCN3CC[C@@]4(c5cc([C@@]6(C(=O)OC)C[C@@H]7C[C@@H](C(C)(F)F)CN(CCc8c6[nH]c6ccccc86)C7)c(OC)cc5N(C)[C@H]4C(O)(COC(C)=O)[C@@H]1OC(C)=O)[C@@H]32 (stereo partly shown) [BM75]	> 1000	> 1000	Average weight (g) At sacrifice ([2]; 20 mg/kg, iv, d 1, 4): 30.9 g; Tumor Weight (g) X ± SD ([2]; 20 mg/kg, iv, d 1, 4): 1.53 ± 0.56 g; Average weight (g) At sacrifice ([2]; 40 mg/kg, iv, d 1, 4): 33.3 g; Tumor Weight (g) X ± SD ([2]; 40 mg/kg, iv, d 1, 4): 1.85 ± 0.32 g; inhibition in vivo at 20 mg/kg [2, 5]: 4.4%; inhibition in vivo at 40 mg/kg [2, 6]: 0%
CCC(=O)NCC1(O)[C@H](OC(C)=O)[C@]2(CC)C=CCN3CC[C@@]4(c5cc([C@@]6(C(=O)OC)C[C@@H]7C[C@@H](C(C)(F)F)CN(CCc8c6[nH]c6ccccc86)C7)c(OC)cc5N(C)[C@@H]14)[C@@H]32 (stereo partly shown) [BM78]	> 1000	> 1000	Average weight (g) At sacrifice ([2]; 20 mg/kg, iv, d 1, 4): 30.1 g; Tumor Weight (g) X ± SD ([2]; 20 mg/kg, iv, d 1, 4): 0.76 ± 0.29 g; Average weight (g) At sacrifice ([2]; 40 mg/kg, iv d 1): 28.8 g; Tumor Weight (g) X ± SD ([2]; 40 mg/kg, iv d 1): 0.48 ± 0.15 g; Average weight (g) At sacrifice ([2]; 40 mg/kg, iv, d 1, 4): 29.0 g; Tumor Weight (g) X ± SD ([2]; 40 mg/kg, iv, d 1, 4): 0.36 ± 0.11 g; inhibition in vivo at 20 mg/kg [2, 5]: 52.5%; inhibition in vivo at 40 mg/kg ([2]; read-out: Inhibition rate %, 40 mg/kg, iv d 1): 70%; inhibition in vivo at 40 mg/kg [2, 6]: 77.5%; antitumor activity in vivo (in words) ([2]; S180 in mice, iv): strong antitumor activity in vivo
CCC(=O)NCC1(O)[C@H](OC(C)=O)[C@]2(CC)C=CCN3CC[C@@]4(c5cc([C@@]6(C(=O)OC)C[C@@H]7C=C(CC)CN(CCc8c6[nH]c6ccccc86)C7)c(OC)cc5N(C)[C@@H]14)[C@@H]32 (stereo partly shown) [BM27]	13.4	42.9	Average weight (g) At sacrifice ([2]; 10 mg/kg, iv, d 1, 4): 21.4 g; Tumor Weight (g) X ± SD ([2]; 10 mg/kg, iv, d 1, 4): 0.25 ± 0.06 g; Average weight (g) At sacrifice ([2]; 20 mg/kg, iv d 1): 20.7 g; Tumor Weight (g) X ± SD ([2]; 20 mg/kg, iv d 1): 0.16 ± 0.03 g; inhibition in vivo at 10 mg/kg [2]: 84.4%; inhibition in vivo at 20 mg/kg ([2]; read-out: Inhibition rate %, 20 mg/kg, iv d 1): 90%; cell-based efficacy, inhibition of tumor cell proliferation (in words) [3]: excellent cell-based efficacy
CC[C@]12C=CCN3CC[C@@]4(c5cc([C@@]6(C(=O)OC)C[C@@H]7C[C@@H](C(C)(F)F)CN(CCc8c6[nH]c6ccccc86)C7)c(OC)cc5N(C)[C@H]4C(O)(CNC(=O)OCC(C)C)[C@@H]1OC(C)=O)[C@@H]32 (stereo partly shown) [BM80]	> 1000	> 1000	Average weight (g) At sacrifice ([2]; 20 mg/kg, iv, d 1, 4): 34.5 g; Tumor Weight (g) X ± SD ([2]; 20 mg/kg, iv, d 1, 4): 1.55 ± 0.34 g; Average weight (g) At sacrifice ([2]; 40 mg/kg, iv, d 1, 4): 32.5 g; Tumor Weight (g) X ± SD ([2]; 40 mg/kg, iv, d 1, 4): 1.58 ± 0.12 g; inhibition in vivo at 20 mg/kg [2, 5]: 3.1%; inhibition in vivo at 40 mg/kg [2, 6]: 1.2%
CCC1=C[C@@H]2CN(CCc3c([nH]c4ccccc34)[C@@](C(=O)OC)(c3cc4c(cc3OC)N(C)[C@H]3C(O)(CNC(=O)OCC(C)C)[C@H](OC(C)=O)[C@]5(CC)C=CCN6CC[C@]43[C@@H]65)C2)C1 (stereo partly shown) [BM53]	7.1	13.7	Average weight (g) At sacrifice ([2]; 10 mg/kg, iv, d 1, 4): 25.4 g; Tumor Weight (g) X ± SD ([2]; 10 mg/kg, iv, d 1, 4): 0.24 ± 0.09 g; inhibition in vivo at 10 mg/kg [2]: 85%; cell-based efficacy, inhibition of tumor cell proliferation (in words) [3]: excellent cell-based efficacy
CCC1=C[C@@H]2CN(CCc3c([nH]c4ccccc34)[C@@](C(=O)OC)(c3cc4c(cc3OC)N(C)[C@H]3C(O)(CNC(=O)OC5CCCC5)[C@H](OC(C)=O)[C@]5(CC)C=CCN6CC[C@]43[C@@H]65)C2)C1 (stereo partly shown) [BM59]	79.8	170	
CCC1=C[C@@H]2CN(CCc3c([nH]c4ccccc34)[C@@](C(=O)OC)(c3cc4c(cc3OC)N(C)[C@H]3C(O)(CNC(=O)Oc5ccc(F)c(F)c5)[C@H](OC(C)=O)[C@]5(CC)C=CCN6CC[C@]43[C@@H]65)C2)C1 (stereo partly shown) [BM63]	264	> 1000	
C=CCOCC1(O)[C@H](OC(C)=O)[C@]2(CC)C=CCN3CC[C@@]4(c5cc([C@@]6(C(=O)OC)C[C@@H]7C=C(CC)CN(CCc8c6[nH]c6ccccc86)C7)c(OC)cc5N(C)[C@@H]14)[C@@H]32 (stereo partly shown) [BM2]	113	441	
CCC1=C[C@@H]2CN(CCc3c([nH]c4ccccc34)[C@@](C(=O)OC)(c3cc4c(cc3OC)N(C)[C@H]3C(O)(COCc5ccc(OC)cc5)[C@H](OC(C)=O)[C@]5(CC)C=CCN6CC[C@]43C65)C2)C1 (stereo partly shown) [BM5]	286	> 1000	
C=C(C)C(=O)NCC1(O)[C@H](OC(C)=O)[C@]2(CC)C=CCN3CC[C@@]4(c5cc([C@@]6(C(=O)OC)C[C@@H]7C=C(CC)CN(CCc8c6[nH]c6ccccc86)C7)c(OC)cc5N(C)[C@@H]14)[C@@H]32 (stereo partly shown) [BM32]	12.5	17.9	
CCC1=C[C@@H]2CN(CCc3c([nH]c4ccccc34)[C@@](C(=O)OC)(c3cc4c(cc3OC)N(C)[C@H]3C(O)(CNC(=O)OCc5ccc(OC)cc5)[C@H](OC(C)=O)[C@]5(CC)C=CCN6CC[C@]43[C@@H]65)C2)C1 (stereo partly shown) [BM68]	87.6	150	
CCC1=C[C@@H]2CN(CCc3c([nH]c4ccccc34)[C@@](C(=O)OC)(c3cc4c(cc3OC)N(C)[C@H]3C(O)(CNC(C)=O)[C@H](OC(C)=O)[C@]5(CC)C=CCN6CC[C@]43[C@@H]65)C2)C1 (stereo partly shown) [BM25]	477	> 1000	
CCCCNC(=O)OCC1(O)[C@H](OC(C)=O)[C@]2(CC)C=CCN3CC[C@@]4(c5cc([C@@]6(C(=O)OC)C[C@@H]7C=C(CC)CN(CCc8c6[nH]c6ccccc86)C7)c(OC)cc5N(C)[C@@H]14)[C@@H]32 (stereo partly shown) [BM23]	> 1000	> 1000	
CCC1=C[C@@H]2CN(CCc3c([nH]c4ccccc34)[C@@](C(=O)OC)(c3cc4c(cc3OC)N(C)[C@H]3C(O)(CNC(=O)Oc5ccccc5OC)[C@H](OC(C)=O)[C@]5(CC)C=CCN6CC[C@]43[C@@H]65)C2)C1 (stereo partly shown) [BM64]	227	951	
CCC1=C[C@@H]2CN(CCc3c([nH]c4ccccc34)[C@@](C(=O)OC)(c3cc4c(cc3OC)N(C)[C@H]3C(O)(CNC(=O)c5ccc(F)cc5)[C@H](OC(C)=O)[C@]5(CC)C=CCN6CC[C@]43C65)C2)C1 (stereo partly shown) [BM38]	20.4	46.5	
CCC1=C[C@@H]2CN(CCc3c([nH]c4ccccc34)[C@@](C(=O)OC)(c3cc4c(cc3OC)N(C)[C@H]3C(O)(COC(=O)Cc5ccccc5)[C@H](OC(C)=O)[C@]5(CC)C=CCN6CC[C@]43[C@@H]65)C2)C1 (stereo partly shown) [BM15]	228	> 1000	
CCC1=C[C@@H]2CN(CCc3c([nH]c4ccccc34)[C@@](C(=O)OC)(c3cc4c(cc3OC)N(C)[C@H]3C(O)(CNC(=O)c5cccc(Cl)c5)[C@H](OC(C)=O)[C@]5(CC)C=CCN6CC[C@]43C65)C2)C1 (stereo partly shown) [BM40]	42	103	
CCC1=C[C@@H]2CN(CCc3c([nH]c4ccccc34)[C@@](C(=O)OC)(c3cc4c(cc3OC)N(C)[C@H]3C(O)(CNC(=O)OCc5ccc(Cl)cc5)[C@H](OC(C)=O)[C@]5(CC)C=CCN6CC[C@]43[C@@H]65)C2)C1 (stereo partly shown) [BM71]	347	510	
CCOCC1(O)[C@H](OC(C)=O)[C@]2(CC)C=CCN3CC[C@@]4(c5cc([C@@]6(C(=O)OC)C[C@@H]7C=C(CC)CN(CCc8c6[nH]c6ccccc86)C7)c(OC)cc5N(C)[C@@H]14)[C@@H]32 (stereo partly shown) [BM1]	154	348	
CCC1=C[C@@H]2CN(CCc3c([nH]c4ccccc34)[C@@](C(=O)OC)(c3cc4c(cc3OC)N(C)[C@H]3C(O)(COC(=O)C5CC5)[C@H](OC(C)=O)[C@]5(CC)C=CCN6CC[C@]43[C@@H]65)C2)C1 (stereo partly shown) [BM14]	> 1000	> 1000	
CCC1=C[C@@H]2CN(CCc3c([nH]c4ccccc34)[C@@](C(=O)OC)(c3cc4c(cc3OC)N(C)[C@H]3C(O)(CNC(=O)OCc5ccccc5)[C@H](OC(C)=O)[C@]5(CC)C=CCN6CC[C@]43[C@@H]65)C2)C1 (stereo partly shown) [BM66]	87.5	261	
CCC1=C[C@@H]2CN(CCc3c([nH]c4ccccc34)[C@@](C(=O)OC)(c3cc4c(cc3OC)N(C)[C@H]3C(O)(CNC(=O)OC5CCCCC5)[C@H](OC(C)=O)[C@]5(CC)C=CCN6CC[C@]43[C@@H]65)C2)C1 (stereo partly shown) [BM60]	75.9	226	
CCC1=C[C@@H]2CN(CCc3c([nH]c4ccccc34)[C@@](C(=O)OC)(c3cc4c(cc3OC)N(C)[C@H]3C(O)(CNC(=O)C(C)(C)C)[C@H](OC(C)=O)[C@]5(CC)C=CCN6CC[C@]43[C@@H]65)C2)C1 (stereo partly shown) [BM34]	73.5	338	
CCC1=C[C@@H]2CN(CCc3c([nH]c4ccccc34)[C@@](C(=O)OC)(c3cc4c(cc3OC)N(C)[C@H]3C(O)(COC(=O)CC(C)C)[C@H](OC(C)=O)[C@]5(CC)C=CCN6CC[C@]43[C@@H]65)C2)C1 (stereo partly shown) [BM13]	> 1000	> 1000	
CCC1=C[C@@H]2CN(CCc3c([nH]c4ccccc34)[C@@](C(=O)OC)(c3cc4c(cc3OC)N(C)[C@H]3C(O)(CNC(=O)OC5CCC5)[C@H](OC(C)=O)[C@]5(CC)C=CCN6CC[C@]43[C@@H]65)C2)C1 (stereo partly shown) [BM58]	62.9	97.3	
